Measured values as given in patent EP4782450A1, “NOVEL SKELETAL DERIVATIVE EFFECTIVE FOR HER2 MUTATION, AND PHARMACEUTICAL COMPOSITION COMPRISING SAME” (Hanmi Pharm. Co., Ltd., priority 2023, dated 2025).

What was measured:
[1] = tested on: wild-type EGFR overexpressing Ba/F3 cells; assay: Growth inhibition of Ba/F3 cells engineered to overexpress wild-type EGFR (CellTiter-Glo luminescence); assay type: cell-based; settings: Mus musculus, BaF3, 72 hours, concentrations 10000 to 8 nM, read-out: Ba/F3 EGFR^WT GI50 class
Method in brief: (§1)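 Ba/F3 cells overexpressing HER2 A775_G776insYVMA (1000–0.32 nM) or wild-type EGFR (10000–8 nM) treated 72 h at 37°C in RPMI/10% FBS. Viability by CellTiter-Glo luminescence; GI50 by nonlinear regression with untreated growth set at 100%.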

Ba/F3 HER2 A775insYVMA = assay: Growth inhibition of Ba/F3 cells engineered to overexpress HER2 A775_G776insYVMA (CellTiter-Glo luminescence); assay type: cell-based; settings: Mus musculus, BaF3, 72 hours, concentrations 1000 to 0.32 nM, read-out: Ba/F3 HER2^YVMA GI50 class
Method in brief: as §1

GI50 [1] | GI50 (Ba/F3 HER2 A775insYVMA) | Structure (SMILES)
1000 to 5000 nM | 1000 to 5000 nM | C=CC(=O)N(C)CC#Cc1cnc2ncnc(Nc3ccc(Oc4ccn5ncnc5c4)c(C)c3)c2c1 [Example 66, N-(3-(4-((4-([1,2,4]triazolo[1,5-a]pyridin-7-yloxy)-3-methylphenyl)amino)pyrido[2,3-d]pyrimidin-6-yl)prop-2-yn-1-yl)-N-methylacrylamide]
1000 to 5000 nM | 1000 to 5000 nM | C=CC(=O)N(C)CCNc1ncc2ncnc(Nc3ccc(Oc4ccn5ncnc5c4)c(C)c3)c2n1 [Example 12, N-(2-((8-((4-([1,2,4]triazolo[1,5-a]pyridin-7-yloxy)-3-methylphenyl)amino)pyrimido[5,4-d]pyrimidin-2-yl)amino)ethyl)-N-methylacrylamide]
< 100 nM | 100 to 1000 nM | C=CC(=O)NC/C=C/c1ccc2ncnc(Nc3ccc(Oc4ccn5nccc5c4)c(C)c3)c2n1 [Example 37, (E)-N-(3-(4-((3-methyl-4-(pyrazolo[1,5-a]pyridin-5-yloxy)phenyl)amino)pyrido[3,2-d]pyrimidin-6-yl)allyl)acrylamide]
100 to 1000 nM | < 100 nM | C=CC(=O)N(C)CC#Cc1ccc2ncnc(Nc3ccc(Oc4ccn5ncnc5c4)c(C)c3)c2c1 [Example 65, N-(3-(4-((4-([1,2,4]triazolo[1,5-a]pyridin-7-yloxy)-3-methylphenyl)amino)quinazolin-6-yl)prop-2-yn-1-yl)-N-methylacrylamide]
1000 to 5000 nM | < 100 nM | C=CC(=O)N1CC(/C=C/c2ccc3ncnc(Nc4ccc(Oc5ccc6c(c5)ncn6C)c(C)c4)c3n2)C1 [Example 28, (E)-1-(3-(2-(4-((3-methyl-4-((1-methyl-1H-benzo[d]imidazol-5-yl)oxy)phenyl)amino)pyrido[3,2-d]pyrimidin-6-yl)vinyl)azetidin-1-yl)prop-2-en-1-one]
100 to 1000 nM | < 100 nM | C=CC(=O)N1CCC[C@H]1C#Cc1ccc2ncnc(Nc3ccc(Oc4ccn5ncnc5c4)c(C)c3)c2c1 [Example 75, (S)-1-(2-((4-((4-([1,2,4]triazolo[1,5-a]pyridin-7-yloxy)-3-methylphenyl)amino)quinazolin-6-yl)ethynyl)pyrrolidin-1-yl)prop-2-en-1-one]
> 5000 nM | 100 to 1000 nM | C=CC(=O)N(C)CCN(C)c1ccc2ncnc(Nc3ccc(Oc4ccc5c(c4)ncn5C)c(C)c3)c2n1 [Example 18, N-methyl-N-(2-(methyl(4-((3-methyl-4-((1-methyl-1H-benzo[d]imidazol-5-yl)oxy)phenyl)amino)pyrido[3,2-d]pyrimidin-6-yl)amino)ethyl)acrylamide]
> 5000 nM | < 100 nM | C=CC(=O)NC/C=C/c1ccc2ncnc(Nc3ccc(Oc4ccc5c(c4)ncn5C)c(C)c3F)c2n1 [Example 35, (E)-N-(3-(4-((2-fluoro-3-methyl-4-((1-methyl-1H-benzo[d]imidazol-5-yl)oxy)phenyl)amino)pyrido[3,2-d]pyrimidin-6-yl)allyl)acrylamide]
100 to 1000 nM | 100 to 1000 nM | C=CC(=O)N(C)C1(/C=C/c2ccc3ncnc(Nc4ccc(Oc5ccc6c(c5)ncn6C)c(C)c4)c3n2)CC1 [Example 30, (E)-N-methyl-N-(1-(2-(4-((3-methyl-4-((1-methyl-1H-benzo[d]imidazol-5-yl)oxy)phenyl)amino)pyrido[3,2-d]pyrimidin-6-yl)vinyl)cyclopropyl)acrylamide]
> 5000 nM | 100 to 1000 nM | C=CC(=O)N(C)CCCN(C)c1ccc2ncnc(Nc3ccc(Oc4ccc5c(c4)ncn5C)c(C)c3)c2n1 [Example 20, N-methyl-N-(3-(methyl(4-((3-methyl-4-((1-methyl-1H-benzo[d]imidazol-5-yl)oxy)phenyl)amino)pyrido[3,2-d]pyrimidin-6-yl)amino)propyl)acrylamide]
> 5000 nM | 100 to 1000 nM | Cc1cc(Nc2ncnc3ccc(/C=C/CN(C)C(=O)/C=C/CN4CCOCC4)nc23)ccc1Oc1ccc2c(c1)ncn2C [Example 62, (E)-N-methyl-N-((E)-3-(4-((3-methyl-4-((1-methyl-1H-benzo[d]imidazol-5-yl)oxy)phenyl)amino)pyrido[3,2-d]pyrimidin-6-yl)allyl)-4-morpholinobut-2-enamide]
1000 to 5000 nM | 1000 to 5000 nM | C=CC(=O)N(C)CCN(C)c1ncc2ncnc(Nc3ccc(Oc4ccn5ncnc5c4)c(C)c3)c2n1 [Example 14, N-(2-((8-((4-([1,2,4]triazolo[1,5-a]pyridin-7-yloxy)-3-methylphenyl)amino)pyrimido[5,4-d]pyrimidin-2-yl)(methyl)amino)ethyl)-N-methylacrylamide]

Structure (SMILES) | GI50 [1] | GI50 (Ba/F3 HER2 A775insYVMA)
C=CC(=O)N(C)CC#Cc1ncc2ncnc(Nc3ccc(Oc4ccc5c(c4)ncn5C)c(C)c3)c2n1 [Example 72] | < 100 nM | 100 to 1000 nM
